Laboratory results reported in ChEMBL document CHEMBL1201862, “PubChem BioAssay data set” (2004).
Active and inactive are the calls of the source.

Columns and labels:
[1] = target: Peroxisome proliferator-activated receptor gamma/Nuclear receptor coactivator 1 (Homo sapiens, UniProt P37231); assay: (§1) TR-FRET dose response biochemical High Throughput Screening assay for agonists of the steroid receptor coactivator 1 (SRC-1) recruitment by the peroxisome proliferator-activated receptor gamma (PPAR gamma): non-selective agonists. [Related pubchem assays (depositor defined):AID1300, AID1808, AID504735, AID631]; assay type: protein assay
[2] = target: Peroxisome proliferator-activated receptor gamma/Nuclear receptor coactivator 3 (Homo sapiens, UniProt P37231); assay: as §1, with “3 (SRC-3)” for “1 (SRC-1)”, “assays: 1301 (Confirmation screen.), 1048 (Primary screen.)]” for “assays (depositor defined):AID1300, AID1808, AID504735, AID631]”; assay type: functional
[3] = target: Peroxisome proliferator-activated receptor gamma/Nuclear receptor coactivator 2 (Homo sapiens, UniProt P37231); assay: TR-FRET dose response biochemical High Throughput Screening assay for agonists of the steroid receptor coactivator 2 (SRC-2) recruitment by the peroxisome proliferator-activated receptor gamma (PPAR gamma): non-selective agonists. [Related pubchem assays: 1297, 1032 ]; assay type: functional
[4] = target: T1, Glutathione-S-transferase (Schistosoma japonicum, UniProt Q26513); assay: GST-antibody interaction or FRET quenching – biochemical, TR-FRET, artefact control for Vif-APOBEC3G degradation inhibitor project, dose response (AID 1117362); assay type: functional
T1 sequence (Q26513 whole entry): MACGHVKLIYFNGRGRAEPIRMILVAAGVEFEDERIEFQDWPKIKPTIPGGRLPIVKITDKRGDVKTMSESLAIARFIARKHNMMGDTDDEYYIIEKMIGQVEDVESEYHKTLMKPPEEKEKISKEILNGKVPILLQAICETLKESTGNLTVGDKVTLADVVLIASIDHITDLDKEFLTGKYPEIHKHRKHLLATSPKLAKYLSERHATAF

[5] = target: Alkaline phosphatase, placental type (Homo sapiens, UniProt P05187); assay: human placental alkaline phosphatase inhibition – biochemical, luminescence, confirmation (AID 1512); assay type: functional
[6] = target: T2, Alkaline phosphatase, tissue-nonspecific isozyme (Homo sapiens, UniProt P05186); assay: potency against alkaline phosphatase TNAP – biochemical, luminescent, dose response, SAR follow-up (AID 1056)
T2 sequence (P05186 whole entry): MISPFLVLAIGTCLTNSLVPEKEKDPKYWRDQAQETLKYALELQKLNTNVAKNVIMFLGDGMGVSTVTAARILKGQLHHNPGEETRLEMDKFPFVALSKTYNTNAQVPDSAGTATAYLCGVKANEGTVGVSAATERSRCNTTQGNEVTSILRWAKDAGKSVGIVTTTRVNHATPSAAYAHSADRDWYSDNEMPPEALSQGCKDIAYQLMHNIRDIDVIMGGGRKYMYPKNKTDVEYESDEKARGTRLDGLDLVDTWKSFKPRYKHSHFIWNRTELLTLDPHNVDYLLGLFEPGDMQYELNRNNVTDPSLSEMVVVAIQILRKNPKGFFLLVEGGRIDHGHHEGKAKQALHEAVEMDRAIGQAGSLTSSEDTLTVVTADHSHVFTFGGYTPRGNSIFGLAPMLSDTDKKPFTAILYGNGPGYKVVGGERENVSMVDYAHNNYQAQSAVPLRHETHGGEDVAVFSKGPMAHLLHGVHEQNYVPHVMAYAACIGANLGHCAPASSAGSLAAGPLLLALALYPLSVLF

[7] = target: T3, Short transient receptor potential channel 4 (Mus musculus, UniProt Q9QUQ5); assay: calcium entry via TRPC4 opening agents – cell-based, HEK293 TRPC4/mu-opioid, Fluo-4 calcium, dose response (AID 434937); assay type: functional
T3 sequence (Q9QUQ5 whole entry): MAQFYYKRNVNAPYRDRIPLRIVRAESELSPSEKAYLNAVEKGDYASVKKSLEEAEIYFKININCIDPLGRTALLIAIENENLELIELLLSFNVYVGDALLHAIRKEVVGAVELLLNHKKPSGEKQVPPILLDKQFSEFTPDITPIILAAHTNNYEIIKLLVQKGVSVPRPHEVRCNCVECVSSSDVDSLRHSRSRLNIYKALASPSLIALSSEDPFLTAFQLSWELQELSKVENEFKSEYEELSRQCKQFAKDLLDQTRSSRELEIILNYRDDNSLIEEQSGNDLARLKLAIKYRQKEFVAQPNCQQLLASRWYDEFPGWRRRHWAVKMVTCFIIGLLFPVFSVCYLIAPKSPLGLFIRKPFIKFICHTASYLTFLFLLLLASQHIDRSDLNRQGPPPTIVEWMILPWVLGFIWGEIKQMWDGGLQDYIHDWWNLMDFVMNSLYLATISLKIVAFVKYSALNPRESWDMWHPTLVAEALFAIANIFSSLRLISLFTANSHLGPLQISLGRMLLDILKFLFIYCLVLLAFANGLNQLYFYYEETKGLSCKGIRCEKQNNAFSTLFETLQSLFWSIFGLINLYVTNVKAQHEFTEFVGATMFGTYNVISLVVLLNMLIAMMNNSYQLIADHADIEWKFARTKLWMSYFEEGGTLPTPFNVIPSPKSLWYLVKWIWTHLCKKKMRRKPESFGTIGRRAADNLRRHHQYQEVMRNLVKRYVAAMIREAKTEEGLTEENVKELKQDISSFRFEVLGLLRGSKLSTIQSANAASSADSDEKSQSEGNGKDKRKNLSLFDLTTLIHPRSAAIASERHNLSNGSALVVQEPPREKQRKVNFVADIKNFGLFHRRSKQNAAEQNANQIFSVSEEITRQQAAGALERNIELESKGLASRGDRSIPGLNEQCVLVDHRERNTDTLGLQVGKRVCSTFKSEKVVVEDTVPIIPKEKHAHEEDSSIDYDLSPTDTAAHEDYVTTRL

[8] = target: T4, Type-1 angiotensin II receptor (Homo sapiens, UniProt P30556); assay: agonist activity at AGTR1 – cell-based, uHTS hits, selectivity assay for APJ receptor agonist project, dose response (AID 488865); assay type: functional;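 note: beta-arrestin recruitment to AT1 measured by enzyme fragment complementation luminescence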
T4 sequence (P30556 whole entry): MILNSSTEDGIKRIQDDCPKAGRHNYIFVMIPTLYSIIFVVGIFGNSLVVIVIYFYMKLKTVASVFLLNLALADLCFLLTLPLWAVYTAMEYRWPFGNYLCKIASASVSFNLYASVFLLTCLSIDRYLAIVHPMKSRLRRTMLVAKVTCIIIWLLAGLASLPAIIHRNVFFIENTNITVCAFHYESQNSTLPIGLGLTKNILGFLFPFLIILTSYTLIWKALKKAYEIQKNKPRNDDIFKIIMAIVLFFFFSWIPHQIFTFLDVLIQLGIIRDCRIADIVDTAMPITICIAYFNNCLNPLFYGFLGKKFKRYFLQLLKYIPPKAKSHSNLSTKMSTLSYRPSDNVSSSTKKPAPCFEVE

Bcl-2-related protein A1 = target: T5, Bcl-2-related protein A1 (Mus musculus, UniProt Q07440); assay type: functional;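 note: confirmatory dose–response counterscreen on Bfl-1, used to check hits from a UBC13 polyubiquitin inhibitor campaign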
T5 sequence (Q07440 whole entry): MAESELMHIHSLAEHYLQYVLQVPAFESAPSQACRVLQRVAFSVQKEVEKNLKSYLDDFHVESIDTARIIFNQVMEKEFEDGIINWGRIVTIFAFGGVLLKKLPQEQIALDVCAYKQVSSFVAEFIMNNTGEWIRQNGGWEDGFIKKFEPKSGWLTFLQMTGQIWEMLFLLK

[9] = target: T6, Ubiquitin-conjugating enzyme E2 N (Homo sapiens, UniProt P61088); assay type: functional
T6 sequence (P61088 whole entry): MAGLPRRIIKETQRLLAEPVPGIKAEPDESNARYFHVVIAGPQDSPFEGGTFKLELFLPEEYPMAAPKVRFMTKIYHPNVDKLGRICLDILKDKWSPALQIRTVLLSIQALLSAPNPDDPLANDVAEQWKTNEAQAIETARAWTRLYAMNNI

[10] = target: T6, Ubiquitin-conjugating enzyme E2 N; assay type: functional; remark: listed apart in the source
[11] = target: DNA dC->dU-editing enzyme APOBEC-3A (Homo sapiens, UniProt P31941); assay: Dose Response confirmation of small molecule APOBEC3A DNA Deaminase Inhibitors via a fluorescence-based single-stranded DNA deaminase assay. [Related pubchem assays (depositor defined):AID493011, AID493024]; assay type: functional
[12] = target: DNA dC->dU-editing enzyme APOBEC-3G (Homo sapiens, UniProt Q9HC16); assay type: functional;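 note: Dose-response counterscreen measuring inhibition of APOBEC3G DNA deaminase activity, run while confirming APOBEC3A inhibitors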
[13] = NIH-3T3 fibroblast cytotoxicity, dose response, cytotoxicity control, cell-based, fluorescence, Alamar Blue, secondary assay (AID 2327); assay type: functional;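 note: NIH-3T3 mouse fibroblasts cultured with fluconazole at 8 µg/mL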
[14] = fluconazole-exposed Candida albicans growth modulators – fluorescence, retest, confirmation (AID 2467); assay type: functional, cell-based
[15] = target: T7, Carboxy-terminal domain RNA polymerase II polypeptide A small phosphatase 1 (Homo sapiens, UniProt Q9GZU7); assay: CTDSP1 inhibitors, concentration-response, biochemical, absorbance readout, ultra-high-throughput screen actives (AID 540297); assay type: functional
T7 sequence (Q9GZU7 whole entry): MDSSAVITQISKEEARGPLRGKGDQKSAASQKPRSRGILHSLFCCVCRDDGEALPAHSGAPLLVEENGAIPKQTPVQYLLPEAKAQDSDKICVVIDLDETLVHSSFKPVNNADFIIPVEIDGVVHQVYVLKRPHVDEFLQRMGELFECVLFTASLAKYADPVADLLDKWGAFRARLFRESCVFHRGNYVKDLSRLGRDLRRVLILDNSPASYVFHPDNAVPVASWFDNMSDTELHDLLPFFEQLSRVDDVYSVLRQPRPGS

Chain of Peroxisome proliferator-activated receptor gamma/Nuclear receptor coactivator 3 (P37231 whole entry): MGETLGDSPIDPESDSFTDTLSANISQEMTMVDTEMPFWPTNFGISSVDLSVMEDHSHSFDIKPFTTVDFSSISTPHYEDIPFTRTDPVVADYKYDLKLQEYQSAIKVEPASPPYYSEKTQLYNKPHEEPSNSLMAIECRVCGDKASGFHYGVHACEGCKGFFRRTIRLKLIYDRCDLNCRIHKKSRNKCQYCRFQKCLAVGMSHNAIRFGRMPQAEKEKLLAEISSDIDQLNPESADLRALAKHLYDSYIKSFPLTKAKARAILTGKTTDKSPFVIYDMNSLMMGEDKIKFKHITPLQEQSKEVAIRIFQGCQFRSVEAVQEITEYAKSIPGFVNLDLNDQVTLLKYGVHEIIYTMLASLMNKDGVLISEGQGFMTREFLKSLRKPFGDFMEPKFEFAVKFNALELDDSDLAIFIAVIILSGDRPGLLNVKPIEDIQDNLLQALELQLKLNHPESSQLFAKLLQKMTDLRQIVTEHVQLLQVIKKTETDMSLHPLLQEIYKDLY
Chain of Peroxisome proliferator-activated receptor gamma/Nuclear receptor coactivator 3 (Q9Y6Q9 whole entry, further chain): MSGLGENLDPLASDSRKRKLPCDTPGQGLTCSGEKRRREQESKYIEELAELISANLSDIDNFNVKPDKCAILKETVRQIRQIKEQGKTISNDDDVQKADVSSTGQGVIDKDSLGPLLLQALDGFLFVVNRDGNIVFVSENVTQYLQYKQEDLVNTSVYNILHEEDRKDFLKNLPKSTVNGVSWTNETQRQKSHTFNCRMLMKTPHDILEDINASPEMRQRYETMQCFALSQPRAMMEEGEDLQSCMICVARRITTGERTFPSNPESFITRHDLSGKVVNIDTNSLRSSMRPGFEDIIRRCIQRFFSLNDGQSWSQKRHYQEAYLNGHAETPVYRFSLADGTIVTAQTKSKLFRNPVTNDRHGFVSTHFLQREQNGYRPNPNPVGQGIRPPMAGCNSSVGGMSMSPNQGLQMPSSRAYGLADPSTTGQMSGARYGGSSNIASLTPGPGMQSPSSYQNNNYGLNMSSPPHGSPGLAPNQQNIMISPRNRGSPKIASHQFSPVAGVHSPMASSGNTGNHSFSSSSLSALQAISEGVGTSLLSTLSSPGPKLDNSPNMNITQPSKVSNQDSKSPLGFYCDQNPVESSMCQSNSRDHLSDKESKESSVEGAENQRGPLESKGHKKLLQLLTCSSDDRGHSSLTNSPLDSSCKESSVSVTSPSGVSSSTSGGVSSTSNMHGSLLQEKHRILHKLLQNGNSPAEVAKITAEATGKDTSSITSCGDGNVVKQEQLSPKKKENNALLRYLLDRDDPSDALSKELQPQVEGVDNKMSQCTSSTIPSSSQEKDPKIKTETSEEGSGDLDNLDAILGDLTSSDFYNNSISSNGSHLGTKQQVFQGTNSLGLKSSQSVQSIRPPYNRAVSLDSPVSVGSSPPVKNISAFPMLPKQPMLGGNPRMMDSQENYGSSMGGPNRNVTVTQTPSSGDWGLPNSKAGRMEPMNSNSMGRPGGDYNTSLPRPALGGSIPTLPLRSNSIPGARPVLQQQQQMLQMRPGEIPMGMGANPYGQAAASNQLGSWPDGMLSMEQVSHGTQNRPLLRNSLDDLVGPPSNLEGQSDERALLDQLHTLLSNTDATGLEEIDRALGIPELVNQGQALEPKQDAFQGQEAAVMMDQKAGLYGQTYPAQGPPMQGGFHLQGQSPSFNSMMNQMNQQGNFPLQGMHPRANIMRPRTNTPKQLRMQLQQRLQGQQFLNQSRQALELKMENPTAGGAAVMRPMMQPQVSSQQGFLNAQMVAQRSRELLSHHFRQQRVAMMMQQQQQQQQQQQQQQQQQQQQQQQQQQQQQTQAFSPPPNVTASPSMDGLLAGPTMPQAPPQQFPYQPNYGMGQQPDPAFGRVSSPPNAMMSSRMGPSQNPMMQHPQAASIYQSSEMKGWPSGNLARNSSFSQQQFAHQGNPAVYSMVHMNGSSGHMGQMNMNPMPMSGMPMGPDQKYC
Chain of Peroxisome proliferator-activated receptor gamma/Nuclear receptor coactivator 1 (P37231 whole entry): as the sequence (P37231 whole entry) above
Chain of Peroxisome proliferator-activated receptor gamma/Nuclear receptor coactivator 1 (Q15788 whole entry, further chain): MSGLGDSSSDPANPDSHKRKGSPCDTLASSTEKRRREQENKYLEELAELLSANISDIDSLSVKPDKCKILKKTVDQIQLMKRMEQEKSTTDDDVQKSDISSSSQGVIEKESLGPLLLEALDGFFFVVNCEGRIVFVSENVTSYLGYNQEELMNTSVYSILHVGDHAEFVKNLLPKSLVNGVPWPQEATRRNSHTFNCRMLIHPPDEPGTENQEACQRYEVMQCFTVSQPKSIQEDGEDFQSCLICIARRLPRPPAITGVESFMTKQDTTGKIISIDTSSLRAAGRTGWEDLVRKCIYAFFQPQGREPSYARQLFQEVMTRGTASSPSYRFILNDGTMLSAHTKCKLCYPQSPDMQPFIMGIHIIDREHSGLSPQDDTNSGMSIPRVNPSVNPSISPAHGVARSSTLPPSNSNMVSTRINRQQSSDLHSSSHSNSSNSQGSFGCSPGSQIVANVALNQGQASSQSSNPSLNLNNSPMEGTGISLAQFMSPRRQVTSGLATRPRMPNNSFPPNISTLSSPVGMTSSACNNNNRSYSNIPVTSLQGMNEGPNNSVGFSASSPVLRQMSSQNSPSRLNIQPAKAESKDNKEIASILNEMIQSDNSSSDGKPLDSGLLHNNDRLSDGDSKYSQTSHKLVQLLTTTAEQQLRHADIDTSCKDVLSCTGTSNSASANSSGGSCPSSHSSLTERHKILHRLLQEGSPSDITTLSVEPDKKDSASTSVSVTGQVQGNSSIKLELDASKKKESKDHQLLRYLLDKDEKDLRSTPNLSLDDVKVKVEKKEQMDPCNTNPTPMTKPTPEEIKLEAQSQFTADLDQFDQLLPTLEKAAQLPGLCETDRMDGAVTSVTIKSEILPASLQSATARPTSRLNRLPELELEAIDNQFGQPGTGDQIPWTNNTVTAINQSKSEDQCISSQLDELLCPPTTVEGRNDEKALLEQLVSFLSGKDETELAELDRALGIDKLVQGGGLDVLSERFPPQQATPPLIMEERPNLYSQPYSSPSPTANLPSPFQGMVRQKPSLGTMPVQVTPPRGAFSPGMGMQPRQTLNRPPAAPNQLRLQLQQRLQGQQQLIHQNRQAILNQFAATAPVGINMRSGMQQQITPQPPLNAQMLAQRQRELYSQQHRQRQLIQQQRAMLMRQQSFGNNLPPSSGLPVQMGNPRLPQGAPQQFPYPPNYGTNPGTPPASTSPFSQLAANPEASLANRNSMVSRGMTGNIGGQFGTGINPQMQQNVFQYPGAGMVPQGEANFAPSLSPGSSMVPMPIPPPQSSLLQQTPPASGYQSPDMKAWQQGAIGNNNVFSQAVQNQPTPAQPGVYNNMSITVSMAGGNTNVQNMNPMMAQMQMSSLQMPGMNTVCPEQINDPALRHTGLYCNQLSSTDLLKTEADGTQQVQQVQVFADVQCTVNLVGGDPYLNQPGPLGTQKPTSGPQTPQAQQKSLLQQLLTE
Chain of DNA dC->dU-editing enzyme APOBEC-3G (Q9HC16 whole entry): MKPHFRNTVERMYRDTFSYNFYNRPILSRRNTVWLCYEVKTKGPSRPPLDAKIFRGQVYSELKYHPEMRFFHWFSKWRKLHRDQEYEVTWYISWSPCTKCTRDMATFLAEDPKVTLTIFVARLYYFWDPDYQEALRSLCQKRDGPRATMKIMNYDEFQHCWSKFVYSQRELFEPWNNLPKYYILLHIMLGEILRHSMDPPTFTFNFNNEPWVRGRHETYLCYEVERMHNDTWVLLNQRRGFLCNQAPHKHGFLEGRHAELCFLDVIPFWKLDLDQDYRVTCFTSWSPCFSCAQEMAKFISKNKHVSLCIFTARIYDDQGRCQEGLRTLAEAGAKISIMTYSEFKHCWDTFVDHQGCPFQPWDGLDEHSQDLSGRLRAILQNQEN
Chain of DNA dC->dU-editing enzyme APOBEC-3A (P31941 whole entry): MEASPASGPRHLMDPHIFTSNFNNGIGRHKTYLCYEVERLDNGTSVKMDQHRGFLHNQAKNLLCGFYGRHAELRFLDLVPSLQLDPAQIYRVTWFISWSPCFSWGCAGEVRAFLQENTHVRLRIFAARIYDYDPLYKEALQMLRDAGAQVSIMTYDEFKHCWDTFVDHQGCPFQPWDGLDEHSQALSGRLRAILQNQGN
Chain of Alkaline phosphatase, placental type (P05187 whole entry): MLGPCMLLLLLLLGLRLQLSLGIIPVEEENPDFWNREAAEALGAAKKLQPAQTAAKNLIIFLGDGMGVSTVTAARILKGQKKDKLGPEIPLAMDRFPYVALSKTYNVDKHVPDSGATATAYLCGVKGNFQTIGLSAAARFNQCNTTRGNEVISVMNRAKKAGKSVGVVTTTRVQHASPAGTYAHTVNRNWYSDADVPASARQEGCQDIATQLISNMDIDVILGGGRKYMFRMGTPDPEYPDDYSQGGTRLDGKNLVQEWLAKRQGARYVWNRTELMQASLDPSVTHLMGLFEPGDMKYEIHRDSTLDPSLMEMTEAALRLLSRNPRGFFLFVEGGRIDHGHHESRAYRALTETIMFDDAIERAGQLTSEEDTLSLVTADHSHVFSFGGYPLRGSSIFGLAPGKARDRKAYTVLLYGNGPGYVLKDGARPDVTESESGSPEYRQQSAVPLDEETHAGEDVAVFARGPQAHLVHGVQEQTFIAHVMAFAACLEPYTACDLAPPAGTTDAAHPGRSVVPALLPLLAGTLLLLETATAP

## Cc1ccc(C)n1-c1ccc(-c2nnc3n2CCCCC3)s1
[1]
  EC50: > 79.4 µM (inactive)
[2]
  EC50: > 79.4 µM (not active)
[3]
  EC50: 38.7 µM (not active)
[4]
  IC50: 86.7 µM (active)

## Cc1cc(-c2ccc(Br)s2)nc(-n2cccc2)n1
[1]
  EC50: > 79.4 µM (inactive)
[2]
  EC50: > 79.4 µM (not active)
[3]
  EC50: 19.3 µM (not active)

## COc1ccc(F)cc1S(=O)(=O)Nc1ccc2ccccc2c1
[5]
  IC50: > 100 µM (inactive)
[6]
  IC50: > 100 µM (inactive)

## Cn1cc[n+](C)c1P(=S)(c1ccccc1)c1ccccc1
[7]
  EC50: 0.237 µM (active)

## CCC(c1nnnn1CCOC)N(Cc1ccc(C)cc1)Cc1cc2cc(OC)ccc2[nH]c1=O (stereo not drawn)
[8]
  EC50: > 100 µM (inactive)

## Cc1cccc2sc(N(CCCN(C)C)C(=O)c3ccc(S(=O)(=O)N4CCc5ccccc5C4)cc3)nc12
[8]
  EC50: > 100 µM (inactive)

## COc1ccccc1-c1nc(SCC(=O)c2ccc(O)c(O)c2)n[nH]1
[5]
  IC50: 14.8 µM (active)
[6]
  IC50: 3.34 µM (active)

## CCn1c(SCC(=O)c2ccc(OC)cc2)nnc1-c1ccccc1
[5]
  IC50: > 100 µM (inactive)
[6]
  IC50: > 100 µM (inactive)

## CCOc1ccc(NS(=O)(=O)c2cc(C(=O)NCCCN3CCOCC3)ccc2C)cc1
Bcl-2-related protein A1
  IC50: > 20 µM (inactive)
[9]
  IC50: 9.23 µM (active)
[10]
  IC50: 10.5 µM (active)

## O=C(CC1C(=O)NCCN1Cc1cccc(Oc2ccccc2)c1)NCCc1ccccn1 (stereo not drawn)
[7]
  EC50: 4.73 µM (active)

## Cc1ccc(NC(=O)C2CCCN2C(=O)c2cccs2)c(C)c1 (stereo not drawn)
[11]
  IC50: 3.76 µM (active)
[12]
  IC50: 6.6 µM (active)

## CCn1c(=S)[nH]c2scc(-c3cccs3)c2c1=O
[13]
  EC50: > 160 µM (inactive)
[1]
  EC50: 8.82 µM (active)
[2]
  EC50: > 79.4 µM (not active)
[14]
  EC50: 1.23 µM (active)
[3]
  EC50: 11.1 µM (not active)

## CCOc1cc2[nH]c(=S)n(CCN3CCCCC3CC)c(=O)c2cc1OCC (stereo not drawn)
[8]
  EC50: > 100 µM (inactive)

## COc1cc(/C=C/c2cccc[n+]2C)ccc1OCC(=O)Nc1cccc(Cl)c1
[11]
  IC50: 2.83 µM (active)
[12]
  IC50: 2.95 µM (active)
[15]
  IC50: 18.9 µM (active)

## O=C(NCc1ccccc1CN1CCCCC1)c1ccccc1N1CCCC1=O
[11]
  IC50: 4.48 µM (active)
[12]
  IC50: 4.58 µM (active)
